Data from PubChem BioAssay AID248 (DTP/NCI, 2004).
“And” between values parts separate entries of the source, which are not always exact repeats. Identical values can stand only once. Inconclusive results and toxic doses are left out.

System: L1210 leukemia ip in BDF1 mice, survival T/C
Test: NCI In Vivo Anticancer Drug Screen. Data for tumor model L1210 Leukemia (intraperitoneal) in B6D2F1 (BDF1) mice
Conditions: endpoint: mean survival time, higher = longer survival
How it was run: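 Antitumor effect is assessed in tumor-bearing animals. Survival in the compound arm is compared with a vehicle-dosed control arm and expressed as their quotient.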

[1] = dose: 100.0 mg/kg/injection, schedule: Q01DX001 (ip), vehicle: saline
[2] = dose: 200.0 mg/kg/injection, schedule: Q04DX003 (ip), vehicle: saline with Tween-80
[3] = dose: 400.0 mg/kg/injection, schedule: Q04DX003 (ip), vehicle: saline with Tween-80
[4] = dose: 100.0 mg/kg/injection, schedule: Q04DX003 (ip), vehicle: saline with Tween-80
[5] = dose: 100.0 mg/kg/injection, schedule: Q01DX009 (ip), vehicle: Klucel (hydroxypropylcellulose) (HPC)
[6] = dose: 100.0 mg/kg/injection, schedule: Q04DX003 (ip), vehicle: Klucel (hydroxypropylcellulose) (HPC)
[7] = dose: 200.0 mg/kg/injection, schedule: Q01DX009 (ip), vehicle: Klucel (hydroxypropylcellulose) (HPC)
[8] = dose: 200.0 mg/kg/injection, schedule: Q04DX003 (ip), vehicle: Klucel (hydroxypropylcellulose) (HPC)
[9] = dose: 400.0 mg/kg/injection, schedule: Q01DX009 (ip), vehicle: Klucel (hydroxypropylcellulose) (HPC)
[10] = dose: 400.0 mg/kg/injection, schedule: Q04DX003 (ip), vehicle: Klucel (hydroxypropylcellulose) (HPC)
[11] = dose: 200.0 mg/kg/injection, schedule: Q01DX001 (ip), vehicle: saline
[12] = dose: 400.0 mg/kg/injection, schedule: Q01DX001 (ip), vehicle: saline
[13] = dose: 25.0 mg/kg/injection, schedule: Q01DX009 (ip), vehicle: saline
[14] = dose: 50.0 mg/kg/injection, schedule: Q01DX009 (ip), vehicle: saline
[15] = dose: 100.0 mg/kg/injection, schedule: Q04DX003 (ip), vehicle: saline

Compound: O/N=C(\C=N\O)c1ccccc1
- T/C (dose: 100.0 mg/kg/injection, schedule: Q01DX009 (sc), vehicle: olive oil, sesame oil, peanut oil): 109 % of control
- T/C (dose: 100.0 mg/kg/injection, schedule: Q04DX003 (sc), vehicle: olive oil, sesame oil, peanut oil): 98 % of control
- T/C (dose: 200.0 mg/kg/injection, schedule: Q01DX009 (sc), vehicle: olive oil, sesame oil, peanut oil): 112 % of control
- T/C (dose: 200.0 mg/kg/injection, schedule: Q04DX003 (sc), vehicle: olive oil, sesame oil, peanut oil): 101 % of control
- T/C (dose: 400.0 mg/kg/injection, schedule: Q01DX009 (sc), vehicle: olive oil, sesame oil, peanut oil): 98 % of control

Compound: O=C1C(Cl)=C(NCCCCCCNC2=C(Cl)C(=O)c3ccccc3C2=O)C(=O)c2ccccc21
- T/C [1]: 106 % of control

Compound: COC(=O)C(CCC(=O)C=[N+]=N)NC(=O)C(Cl)Cl (stereo not drawn)
- T/C (dose: 35.0 mg/kg/injection, schedule: Q01DX001 (ip), vehicle: saline): 122 % of control
- T/C (dose: 75.0 mg/kg/injection, schedule: Q01DX001 (ip), vehicle: saline): 122 % of control
- T/C (dose: 125.0 mg/kg/injection, schedule: Q01DX001 (ip), vehicle: saline): 111 % of control
- T/C [2]: 167 % of control
- T/C (dose: 266.0 mg/kg/injection, schedule: Q01DX001 (ip), vehicle: saline): 98 % of control
- T/C [3]: 124 % of control
- T/C (dose: 600.0 mg/kg/injection, schedule: Q01DX001 (ip), vehicle: saline): 117 % of control

Compound: O=C(O)c1cscc1Cc1ccccc1
- T/C [4]: 90 % of control
- T/C [2]: 94 % of control
- T/C [3]: 95 % of control

Compound: OCCOc1ccccc1
- T/C (dose: 100.0 mg/kg/injection, schedule: Q04DX002 (ip), vehicle: saline with Tween-80): 100 % of control
- T/C (dose: 200.0 mg/kg/injection, schedule: Q04DX002 (ip), vehicle: saline with Tween-80): 95 % of control
- T/C (dose: 400.0 mg/kg/injection, schedule: Q04DX002 (ip), vehicle: saline with Tween-80): 91 % of control

Compound: CCOC(=O)c1cnn(-c2ccccc2)c1C
- T/C [5]: 94 % of control
- T/C [6]: 112 % of control
- T/C [7]: 94 % of control
- T/C [8]: 95 % of control
- T/C [9]: 102 % of control
- T/C [10]: 88 % of control

Compound: O=C1OC(=O)C2C1C=C(c1ccccc1)C1C3C=CC(C4C(=O)OC(=O)C34)C21 (stereo not drawn)
- T/C (dose: 50.0 mg/kg/injection, schedule: Q01DX001 (ip), vehicle: saline): 98 % of control
- T/C [1]: 101 % of control
- T/C [11]: 104 % of control
- T/C [12]: 106 % of control

Compound: O=S(=O)(O)NC1CCCCC1
- T/C (dose: 25.0 mg/kg/injection, schedule: Q01DX009 (ip), vehicle: acetone): 100 % of control
- T/C (dose: 50.0 mg/kg/injection, schedule: Q01DX009 (ip), vehicle: acetone): 100 % of control
- T/C (dose: 100.0 mg/kg/injection, schedule: Q01DX009 (ip), vehicle: acetone): 100 % of control
- T/C [12]: 95 % of control
- T/C (dose: 800.0 mg/kg/injection, schedule: Q01DX001 (ip), vehicle: saline): 90 % of control
- T/C (dose: 1200.0 mg/kg/injection, schedule: Q01DX001 (ip), vehicle: saline): 86 % of control
- T/C (dose: 1600.0 mg/kg/injection, schedule: Q01DX001 (ip), vehicle: saline): 92 % of control

Compound: Cl/N=C(/c1ccccc1)c1ccc(Cl)cc1
- T/C [6]: 105 % of control
- T/C [8]: 102 % of control
- T/C [10]: 104 % of control

Compound: C=CCNc1ncnc2c1ncn2C1OC(CO)C(O)C1O (stereo not drawn)
- T/C (dose: 9.5 mg/kg/injection, schedule: Q01DX001 (ip), vehicle: other): 100 % of control
- T/C (dose: 19.0 mg/kg/injection, schedule: Q01DX001 (ip), vehicle: other): 97 % of control
- T/C (dose: 33.0 mg/kg/injection, schedule: Q01DX009 (ip), vehicle: other): 104 % of control
- T/C (dose: 38.0 mg/kg/injection, schedule: Q01DX001 (ip), vehicle: other): 94 % of control
- T/C (dose: 112.0 mg/kg/injection, schedule: Q01DX009 (ip), vehicle: other): 166 % of control

Compound: CNC(=Nc1ccc(NC(=O)NC(=O)c2ccc(C(=O)NC(=O)Nc3ccc(N=C(NC)c4ccccc4)cc3)cc2)cc1)c1ccccc1
- T/C (dose: 62.0 mg/kg/injection, schedule: Q01DX Z (ip), vehicle: carboxymethylcellulose (CMC)): 88 % of control
- T/C (dose: 125.0 mg/kg/injection, schedule: Q01DX Z (ip), vehicle: carboxymethylcellulose (CMC)): 104 % of control
- T/C (dose: 250.0 mg/kg/injection, schedule: Q01DX Z (ip), vehicle: carboxymethylcellulose (CMC)): 92 % of control
- T/C (dose: 500.0 mg/kg/injection, schedule: Q01DX Z (ip), vehicle: carboxymethylcellulose (CMC)): 95 % of control

Compound: Cc1cc(C)c(C(=O)CCN(C)C)c(C)c1
- T/C [13]: 103 % of control
- T/C (dose: 25.0 mg/kg/injection, schedule: Q04DX003 (ip), vehicle: saline): 93 % of control
- T/C [14]: 96 % of control
- T/C (dose: 50.0 mg/kg/injection, schedule: Q04DX003 (ip), vehicle: saline): 96 % of control
- T/C [15]: 93 % of control and 104 % of control

Compound: O=[As]1(c2cccc3ccccc23)c2ccccc2Cc2ccccc21
- T/C (dose: 83.0 mg/kg/injection, schedule: Q01DX Z (ip), vehicle: methylcellulose (MC)): 86 % of control
- T/C (dose: 125.0 mg/kg/injection, schedule: Q01DX Z (ip), vehicle: methylcellulose (MC)): 86 % of control

Compound: CNc1nc(Cl)cc2c1ncn2C1OC(CO)C(O)C1O (stereo not drawn)
- T/C (dose: 100.0 mg/kg/injection, schedule: Q01DX005 (ip), vehicle: saline): 100 % of control
- T/C (dose: 200.0 mg/kg/injection, schedule: Q01DX005 (ip), vehicle: saline): 100 % of control

Compound: CCOC(=O)c1c[nH]c2cc(Cl)ccc2c1=O
- T/C [5]: 97 % of control
- T/C [6]: 98 % of control
- T/C [7]: 100 % of control
- T/C [8]: 102 % of control
- T/C [9]: 98 % of control
- T/C [10]: 96 % of control

Compound: O=COC1CC2CCC1C2 (stereo not drawn)
- T/C (dose: 100.0 mg/kg/injection, schedule: Q04DX002 (ip), vehicle: saline): 95 % of control
- T/C (dose: 200.0 mg/kg/injection, schedule: Q04DX002 (ip), vehicle: saline): 98 % of control
- T/C (dose: 400.0 mg/kg/injection, schedule: Q04DX002 (ip), vehicle: saline): 100 % of control

Compound: O=C(Nc1cccc(Cl)c1)Nc1cc(Cl)ccc1Cl
- T/C (dose: 100.0 mg/kg/injection, schedule: Q01DX009 (ip), vehicle: saline with Tween-80): 92 % of control
- T/C [4]: 96 % of control
- T/C (dose: 200.0 mg/kg/injection, schedule: Q01DX009 (ip), vehicle: saline with Tween-80): 90 % of control
- T/C [2]: 91 % of control
- T/C (dose: 400.0 mg/kg/injection, schedule: Q01DX009 (ip), vehicle: saline with Tween-80): 94 % of control
- T/C [3]: 97 % of control

Compound: [N-]=[N+]=NCC(=O)NCc1cnccn1
- T/C (dose: 12.5 mg/kg/injection, schedule: Q01DX009 (ip), vehicle: saline): 114 % of control
- T/C [13]: 105 % of control
- T/C [14]: 112 % of control
- T/C [15]: 102 % of control
- T/C (dose: 200.0 mg/kg/injection, schedule: Q04DX003 (ip), vehicle: saline): 96 % of control
- T/C (dose: 400.0 mg/kg/injection, schedule: Q04DX003 (ip), vehicle: saline): 96 % of control

Compound: C/C(=C\C(=O)O)CC(=O)O
- T/C (dose: 25.0 mg/kg/injection, schedule: Q01DX009 (ip), vehicle: water): 88 % of control
- T/C (dose: 25.0 mg/kg/injection, schedule: Q04DX003 (ip), vehicle: water): 95 % of control and 105 % of control
- T/C (dose: 50.0 mg/kg/injection, schedule: Q04DX003 (ip), vehicle: water): 104 % of control and 89 % of control
- T/C (dose: 100.0 mg/kg/injection, schedule: Q01DX009 (ip), vehicle: water): 88 % of control
- T/C (dose: 100.0 mg/kg/injection, schedule: Q04DX003 (ip), vehicle: water): 101 % of control and 102 % of control
- T/C (dose: 200.0 mg/kg/injection, schedule: Q04DX003 (ip), vehicle: water): 93 % of control

Compound: Clc1nc2ncn3cnnc3c2[nH]1
- T/C (dose: 100.0 mg/kg/injection, schedule: Q01DX001 (ip), vehicle: Klucel (hydroxypropylcellulose) (HPC)): 108 % of control
- T/C (dose: 200.0 mg/kg/injection, schedule: Q01DX001 (ip), vehicle: Klucel (hydroxypropylcellulose) (HPC)): 98 % of control
- T/C (dose: 400.0 mg/kg/injection, schedule: Q01DX001 (ip), vehicle: Klucel (hydroxypropylcellulose) (HPC)): 93 % of control

Compound: CC1(C)CCCC2(C)C3=C(CC4(C(C)(C)O)OC4C3=O)C(=O)CC12 (stereo not drawn)
- T/C [1]: 102 % of control
- T/C [11]: 105 % of control
- T/C [12]: 109 % of control

Compound: COc1cc(O)c2ccccc2c1OC(C)=O
- T/C (dose: 50.0 mg/kg/injection, schedule: Q01DX009 (ip), vehicle: Klucel (hydroxypropylcellulose) (HPC)): 101 % of control
- T/C [5]: 90 % of control
- T/C [7]: 93 % of control
